The values that follow are results of earlier work, collected in patent US20220218740A1, “OPIOID-FREE COMPOSITIONS FOR ANESTHESIOLOGICAL APPLICATIONS AND RELATED METHODS AND SYSTEMS” (Vaporworks Nursing Anesthesia Inc., priority 2020, published 2022).

Read-outs that look alike come from different tables or passages of the source.

Assay in series [1]: not given
The source holds these as a separate data set.

The conditions of series [2]: infusion continued post-surgically.

Consider `Cc1cccc([C@H](C)c2cnc[nH]2)c1C` [Dexmedetomidine], for which the peek effect (IV) is 15 min.
For the molecule `COC(=O)CCc1ccc(OCC(O)CNC(C)C)cc1` (stereo not shown) [esmolol], in series [1] (in vivo), the Duration is greater than 20 min and the Peak was 2 to 6 min. In addition, the Onset result in series [1] (in words) was “Immediate”.
Turning to `CCN(CC)CC(=O)Nc1c(C)cccc1C` [Lidocaine], in series [2], the “Peak serum levels occur after medication administration” value is listed as “serum levels occur 24 hours”.
Consider `C[C@@H]1C[C@H]2[C@@H]3CCC4=CC(=O)C=C[C@]4(C)[C@@]3(F)[C@@H](O)C[C@]2(C)[C@@]1(O)C(=O)COP(=O)(O)O` [Dexamethasone, Dexamethasone Sodium phosphate], for which, for the setting “in vivo”, the onset time result was “two” and the “time until peak effect” value is on record as “at least 1 hour”.
On to `CC(CCc1ccccc1)NCC(O)c1ccc(O)c(C(N)=O)c1` (stereo not shown) [labetalol], for which, in series [1] (in vivo), the Duration entry is on record as “up to 4 hours”, the Onset was 2 to 5 min and the Peak is 5 to 15 min.
